Test results reported in US20230330110A1, “HARD CAPSULE DOSAGE FORM AND USES THEREOF” (EIRGEN PHARMA LTD., priority 2020, published 2023).

How the values were obtained:
[1] = Stability of calcifediol in acidic dissolution media (Example 4); assay type: physicochemical; settings: pH 1.2 medium, 37° C., after 6 hours
Experimental: The stability of calcifediol was tested in acidic dissolution media at ambient/light conditions and also in dark conditions, at 37° C., 20° C., and 10° C., using 30 μg calcifediol extended release capsules.

[2] = Repeated-dose study in SHPT, stage 3 or 4 CKD, vitamin D insufficiency: serum total 25-hydroxyvitamin D; assay type: in vivo, human; settings: target of 30 ng/mL; end of second month of treatment (EAP2)
Experimental: (§1) A study is carried out with repeated-dosing of ERC (Rayaldee® (calcifediol) extended-release capsules), IR calcifediol (“IRC”), high-dose cholecalciferol (“HDC”), and paricalcitol plus low-dose cholecalciferol (“PLDC”) in adult patients with secondary hyperparathyroidism (SHPT), stage 3 or 4 chronic kidney disease (CKD) and vitamin D insufficiency.
(§2) This is an open-label study to gather comparative data evaluating the ERC, IR calcifediol, high-dose cholecalciferol, and paricalcitol plus low-dose cholecalciferol. Eligible subjects were randomized 1:1:1:1 to receive 8 weeks of treatment with one of the listed study medications with a sufficient quantity of a non-alcoholic beverage to enable swallowing of the capsules: • 1) ERC capsules 60 μg once daily at bedtime, except on Days 1 and 29 when dosing occurred in the morning before breakfast in the phase 1 unit; • 2) IR calcifediol 266 μg before breakfast on the mornings of Day 1 and Day 29 in the phase 1 unit; • 3) cholecalciferol 300,000 IU (high-dose) before breakfast on the mornings of Day 1 and Day 29 in the phase 1 unit; and • 4) paricalcitol 1 μg (possibly increasing to 2 μg per day at Day 29) plus cholecalciferol 800 IU (low-dose) once daily in the morning before breakfast, except on the mornings of Days 1 and 29 when dosing occurred before breakfast in the phase 1 unit. […]

Plasma iPTH = test: Repeated-dose study (Example 3): plasma iPTH-lowering response; assay type: in vivo, human; settings: EAP2
Experimental: as §1, §2

degradation [1] | SMILES | serum total 25-hydroxyvitamin D response rate [2] | plasma iPTH response rate (Plasma iPTH; response = ≥20% reduction from pre-treatment baseline) | plasma iPTH response rate (Plasma iPTH; response = ≥30% reduction from pre-treatment baseline)
about 90% | C=C1CC[C@H](O)C/C1=C/C=C1\CCC[C@]2(C)[C@@H]([C@H](C)CCCC(C)(C)O)CC[C@@H]12 [calcifediol] | – | – | –
– | C=C1CC[C@H](O)C/C1=C/C=C1\CCC[C@]2(C)[C@@H]([C@H](C)CCCC(C)C)CC[C@@H]12 [HDC, cholecalciferol] | 44% | 37.5% | 25.0%
